Data reported in patent publication US7355079B2, “Thyronamine derivatives and analogs and methods of use thereof” (The Regents of the University of California, priority 2003, dated 2008).
“Also recorded” adds a separate entry of the source.

Assays:
[1] = target: T1, rat trace amine receptor (rTAR-1) (Rattus norvegicus, UniProt Q923Y9); test: cAMP accumulation in HEK cells stably expressing rTAR-1; assay type: cell-based
T1 construct: expressed in transfected cells
Experimental: To test this, the synthetic iodo-thyronamines were assayed for their ability to stimulate cAMP accumulation in human embryonic kidney (HEK) cells stably expressing rTAR-1, as well as cells transfected with an empty vector. […] To address the issue of receptor selectivity, all of the iodo-thyronamines were tested for their ability to activate the dopamine receptors and the β-adrenergic receptors.
(§1) cAMP Assay. HEK293 cells were harvested in Krebs-Ringer-HEPES buffer (KRH) and preincubated in KRH with 200 μM 3-isobutyl-methylxanthine. For drug treatments cells were incubated in KRH with 100 μM 3-isobutyl-1-methylxanthine with the test compound (or 10 μM forskolin) for 1 hour at 37° C. The cells were then boiled for 20 minutes after adding an equal volume of 0.5 mM sodium acetate buffer, centrifuged to remove cell debris, and the resulting extract was analyzed for cAMP content using competitive binding of [^3H]cAMP to a cAMP binding protein (Diagnostic Products Corp., Los Angeles, Calif.). Data were normalized according to protein content as determined using the Bradford reagent (Bio-Rad). Concentration-response curves were plotted and EC50 values calculated with Prism software (GraphPad, San Diego, Calif.).

mouse TAR-1 = target: T2, mouse TAR-1 (Mus musculus, UniProt Q923Y8); test: cAMP assay, activation of mouse TAR-1; assay type: cell-based
T2 construct: expressed in transfected cells
Experimental: as §1

C57Bl/6J mice [2] = test: core body temperature of mice injected intraperitoneally or intracerebrally; assay type: in vivo; conditions: mouse, intraperitoneal or intracerebral injection
Experimental: Eight week old male C57 Black 6J (C57Bl/6J) mice were injected intraperitoneally (i.p.) with the indicated dose of 3-iodothyronamine (T1AM) dissolved in 60% DMSO and normal saline (pH 7.4). Mice were injected intraperitoneally with a dose of T1AM at 18.75, 37.5, or 75 mg/kg body weight. Core body temperature was measured as rectal temperature every 30 minutes for the first 2 hours and then again at 3, 4, and 24 hours post injection. The core body temperature response (with standard error) to each dose reflects the response of 7-8 mice in a room maintained at 24° C.
Core body temperature response was measured in an adult male C57Bl/6J mouse injected intraperitoneally with a dose of T1AM at 100 mg/kg T1AM. The mouse was implanted with a telemetry-emitting temperature sensing probe for more accurate measurement of core body temperature.
Thermal response was measured in an adult male C57Bl/6J mouse to a unilateral intracerebroventricular injection of T1AM dissolved in 60% DMSO/40% normal saline at a dose of 6.6 mg/kg body weight. The mouse was instrumented with a telemetry-emitting temperature sensing probe.

C57Bl/6J mice [3] = test: heart rate and blood pressure responses in mice; assay type: in vivo; conditions: mouse, i.p. approximately 75-80 mg/kg
Experimental: Heart rate and blood pressure responses were measured in an adult male C57Bl/6J mouse injected intraperitoneally with T1AM in 60% DMSO/40% normal saline at a dose of approximately 75-80 mg/kg body weight in two replicate experiments.
Heart rate and blood pressure responses were measured in two drug naive adult male C57Bl/6J mouse following intraperitoneal injection of T1AM at a dose of approximately 75 mg/kg body weight.

C57Bl/6J mice [4] = test: blood glucose levels of mice injected intraperitoneally; assay type: in vivo, mouse; conditions: 50 mg/kg
Experimental: (BTC; ambient temperature −31° C.).

mice = test: responses of mice within minutes of T1AM injection; assay type: in vivo, mouse
From the text: (§2) One of the most consistent clinical findings in individuals with severe hypothyroidism is depression. […] The underlying mechanism of this potentiation remains to be elucidated. Other physiological manifestations of depression that may also have a TH component include thermoregulatory disturbances, decreased metabolic rate, decreased cardiorespiratory fitness, inactivity, and hyperglycemia. Recently we discovered 3-iodothyronamine (T1AM), a novel endogenous metabolite of TH (Scanlan et al., Nature Medicine 10:638, 2004) that is a potent agonist of rodent and human G protein-coupled trace amine associated receptors (Lindemann et al., Genomics 85:372, 2005).

[5] = tested on: ex vivo rat heart preparation; test: ex vivo rat heart preparation, cardiac output
From the text: as §2

i.v. serum half-life = conditions: iv

T1 sequence (Q923Y9 whole entry): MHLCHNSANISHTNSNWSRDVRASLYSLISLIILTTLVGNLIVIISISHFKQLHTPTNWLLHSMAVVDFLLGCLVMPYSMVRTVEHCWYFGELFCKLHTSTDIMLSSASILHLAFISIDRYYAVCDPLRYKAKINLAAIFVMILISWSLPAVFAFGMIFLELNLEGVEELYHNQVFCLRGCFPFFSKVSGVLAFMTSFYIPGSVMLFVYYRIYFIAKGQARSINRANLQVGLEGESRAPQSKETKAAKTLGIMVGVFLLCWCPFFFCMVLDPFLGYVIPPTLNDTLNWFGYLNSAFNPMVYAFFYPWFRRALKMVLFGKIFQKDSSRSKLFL
T2 sequence (Q923Y8 whole entry): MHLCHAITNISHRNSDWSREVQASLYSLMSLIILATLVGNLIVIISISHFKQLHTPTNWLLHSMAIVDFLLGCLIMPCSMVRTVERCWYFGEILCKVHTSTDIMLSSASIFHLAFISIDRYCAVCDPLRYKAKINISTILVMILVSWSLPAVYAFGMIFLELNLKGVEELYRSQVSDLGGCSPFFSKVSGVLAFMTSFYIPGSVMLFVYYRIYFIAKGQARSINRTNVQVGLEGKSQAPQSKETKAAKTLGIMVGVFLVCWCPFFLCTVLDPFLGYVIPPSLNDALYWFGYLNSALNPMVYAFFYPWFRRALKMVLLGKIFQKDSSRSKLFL

SMILES: Cl.NCCc1ccc(Oc2ccc(O)cc2)c(I)c1 [Compound T1AM, 3-iodothyronamine Hydrochloride]
- EC50 [1]: 14 nM
- binding to the TAR receptor using a cAMP assay [1]: high affinity
- increase in agonist potency for rTAR-1 relative to T0AM ([1]; addition of a single iodine atom to the 3-position of T0AM): ~10 fold
- EC50 (mouse TAR-1): 112 nM
- core body temperature after injection (decrease from approximately 38° C.) (C57Bl/6J mice [2]): approximately 29 °C
- period of decreased core body temperature (C57Bl/6J mice [2]): 6.5 to 8 h
- heart rate throughout the treatment period (C57Bl/6J mice [3]): remained constant
- blood pressure (C57Bl/6J mice [3]; Hydrochloride): varied with the drop in body core temperature, but recovered to normal levels; also recorded: varied with the drop in body core temperature, but returned to normal levels
- hyperglycemia when body temperature is held constant (C57Bl/6J mice [4]; body temperature near 37° C. (BTC; ambient temperature ~31° C.)): still significant, but the effect is smaller in magnitude
- blood glucose levels (C57Bl/6J mice [4]; i.p., room temperature (21° C.-22° C.), Hydrochloride): increase blood glucose levels; also recorded: significant increase in blood sugar levels
- response of mice within minutes of injection (mice): reduction in their metabolic rate, body temperature, locomotor activity, and heart rate while blood glucose becomes elevated
- cardiac output [5]: rapidly reduce cardiac output
- half-life (i.v. serum half-life): 2 to 2.5 h
